In brackets after ≈: the same amount, converted by molar mass.
Legend:
Type in all cases: functional
[1] = test system: Streptococcus pneumoniae; assay: Antibacterial activity against erythromycin-susceptible Streptococcus pneumoniae ATCC 49619 by broth microdilution method
[2] = test system: Staphylococcus aureus; assay: Antibacterial activity against erythromycin-resistant Staphylococcus aureus PU-19 expressing erm(A) gene by broth microdilution method
[3] = test system: Streptococcus pneumoniae; assay: Antibacterial activity against erythromycin-resistant Streptococcus pneumoniae PU-27 expressing erm gene by broth microdilution method
[4] = test system: Staphylococcus aureus; assay: Antibacterial activity against erythromycin-susceptible Staphylococcus aureus ATCC 29213 by broth microdilution method
[5] = test system: Staphylococcus aureus; assay: Antibacterial activity against erythromycin-resistant Staphylococcus aureus PU-32 expressing erm(A) gene by broth microdilution method
[6] = test system: Streptococcus pneumoniae; assay: Antibacterial activity against erythromycin-resistant Streptococcus pneumoniae PU-11 expressing erm and mef gene by broth microdilution method
[7] = test system: Streptococcus pneumoniae; assay: Antibacterial activity against erythromycin-resistant Streptococcus pneumoniae PU-09 expressing mef gene by broth microdilution method

| SMILES | MIC [1] [µg/mL] | MIC [2] [µg/mL] | MIC [3] [µg/mL] | MIC [4] [µg/mL] | MIC [5] [µg/mL] | MIC [6] [µg/mL] | MIC [7] [µg/mL] |
| --- | --- | --- | --- | --- | --- | --- | --- |
| CC[C@H]1OC(=O)[C@H](C)[C@@H](O[C@H]2C[C@@](C)(OC)[C@@H](O)[C@H](C)O2)[C@H](C)[C@@H](O[C@@H]2O[C@H](C)C[C@H](N(C)C)[C@H]2O)[C@](C)(OC)C[C@@H](C)C(=O)[C@H](C)[C@@H](O)[C@]1(C)O [CLARITHROMYCIN] | 0.032 (≈ 0.0428 µM) | > 256 | 16 (≈ 21.4 µM) | 0.125 (≈ 0.167 µM) | 64 (≈ 85.6 µM) | 128 (≈ 171 µM) | 4 (≈ 5.35 µM) |
| CC[C@H]1OC(=O)[C@H](C)C(=O)[C@H](C)[C@@H](O[C@H]2O[C@H](C)C[C@H](N(C)C)[C@H]2O)[C@](C)(OC)C[C@@H](C)/C(=N\OC/C=C/c2cccnc2)[C@H](C)[C@@H]2OC(=O)O[C@]12C | 0.032 (≈ 0.0429 µM) | 256 (≈ 343 µM) | – | 0.125 (≈ 0.168 µM) | 0.125 (≈ 0.168 µM) | 128 (≈ 172 µM) | – |
| CC[C@H]1OC(=O)[C@H](C)C(=O)[C@H](C)[C@@H](O[C@H]2O[C@H](C)C[C@H](N(C)C)[C@H]2O)[C@](C)(OC)C[C@@H](C)/C(=N\OC/C=C/c2ccc(-n3ccnc3)cc2)[C@H](C)[C@@H]2OC(=O)O[C@]12C | ≤ 0.016 | 64 (≈ 78.9 µM) | 1 (≈ 1.23 µM) | 0.125 (≈ 0.154 µM) | 0.125 (≈ 0.154 µM) | 32 (≈ 39.5 µM) | 0.125 (≈ 0.154 µM) |
| CC[C@H]1OC(=O)[C@H](C)C(=O)[C@H](C)[C@@H](O[C@H]2O[C@H](C)C[C@H](N(C)C)[C@H]2O)[C@](C)(OC)C[C@@H](C)/C(=N\OC/C=C/c2cnc3ccccc3c2)[C@H](C)[C@@H]2OC(=O)O[C@]12C | ≤ 0.016 | 64 (≈ 80.4 µM) | – | 0.032 (≈ 0.0402 µM) | 0.064 (≈ 0.0804 µM) | 32 (≈ 40.2 µM) | – |
| CC[C@H]1OC(=O)[C@H](C)C(=O)[C@H](C)[C@@H](O[C@H]2O[C@H](C)C[C@H](N(C)C)[C@H]2O)[C@](C)(OC)C[C@@H](C)/C(=N\OC/C=C/c2ccc3ncccc3c2)[C@H](C)[C@@H]2OC(=O)O[C@]12C | ≤ 0.016 | 64 (≈ 80.4 µM) | 1 (≈ 1.26 µM) | 0.032 (≈ 0.0402 µM) | ≤ 0.016 | 32 (≈ 40.2 µM) | 0.25 (≈ 0.314 µM) |
| CC[C@H]1OC(=O)[C@H](C)C(O/C=C\Cc2cncc3ccccc23)[C@H](C)[C@@H](O[C@H]2O[C@H](C)C[C@H](N(C)C)[C@H]2O)[C@](C)(OC)C[C@@H](C)/C(=N\OC/C=C/c2cncc3ccccc23)[C@H](C)[C@@H](O)[C@]1(C)O (some centres not stated) | 16 (≈ 17 µM) | – | – | 128 (≈ 136 µM) | – | – | – |
| CC[C@H]1OC(=O)[C@H](C)C(=O)[C@H](C)[C@@H](O[C@H]2O[C@H](C)C[C@H](N(C)C)[C@H]2O)[C@](C)(OC)C[C@@H](C)/C(=N\OC/C=C/c2cncnc2)[C@H](C)[C@@H]2OC(=O)O[C@]12C | ≤ 0.016 | 256 (≈ 343 µM) | 1 (≈ 1.34 µM) | 0.032 (≈ 0.0428 µM) | 0.032 (≈ 0.0428 µM) | 128 (≈ 171 µM) | 0.25 (≈ 0.335 µM) |
| C=CCOC1[C@@H](C)C(=O)O[C@H](CC)[C@@](C)(O)[C@H](O)[C@@H](C)/C(=N/OC/C=C/c2cncnc2)[C@H](C)C[C@@](C)(OC)[C@H](O[C@H]2O[C@H](C)C[C@H](N(C)C)[C@H]2O)[C@H]1C (some centres not stated) | 8 (≈ 10.5 µM) | > 256 | 128 (≈ 168 µM) | 32 (≈ 41.9 µM) | 32 (≈ 41.9 µM) | 128 (≈ 168 µM) | 16 (≈ 21 µM) |
| CC[C@H]1OC(=O)[C@H](C)C(=O)[C@H](C)[C@@H](O[C@H]2O[C@H](C)C[C@H](N(C)C)[C@H]2O)[C@](C)(OC)C[C@@H](C)/C(=N\OC/C=C/c2cncc3ccccc23)[C@H](C)[C@@H]2OC(=O)O[C@]12C | 0.032 (≈ 0.0402 µM) | 256 (≈ 322 µM) | – | 0.064 (≈ 0.0804 µM) | 0.5 (≈ 0.628 µM) | 64 (≈ 80.4 µM) | – |
| CC[C@H]1OC(=O)[C@H](C)[C@@H](O[C@H]2C[C@@](C)(OC)[C@@H](O)[C@H](C)O2)[C@H](C)[C@@H](O[C@@H]2O[C@H](C)C[C@H](N(C)C)[C@H]2O)[C@](C)(O)C[C@@H](C)CN(C)[C@H](C)[C@@H](O)[C@]1(C)O [AZITHROMYCIN] | 0.064 (≈ 0.0854 µM) | > 256 | – | 0.5 (≈ 0.668 µM) | 64 (≈ 85.4 µM) | 128 (≈ 171 µM) | – |

Reference: ChEMBL document CHEMBL1240467, “Synthesis and antibacterial activities of 6-O-methylerythromycin A 9-O-(3-aryl-2-propenyl) oxime ketolide, 2,3-enol ether, and alkylide analogues” (2010)
